The structures appear in SMILES notation.

The IC50 is the midpoint of a concentration-inhibition curve.

KRasG12D, sequence (P01116 1-188 isoform P01116-2 G12D): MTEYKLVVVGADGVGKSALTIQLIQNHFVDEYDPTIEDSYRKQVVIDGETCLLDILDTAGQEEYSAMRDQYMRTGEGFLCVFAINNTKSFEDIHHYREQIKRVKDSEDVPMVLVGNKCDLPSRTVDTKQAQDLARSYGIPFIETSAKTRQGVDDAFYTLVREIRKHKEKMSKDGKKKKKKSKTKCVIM

For the experiment, the target named is KRasG12D (Homo sapiens, UniProt P01116, G12D). In words: KRAS inhibitory activity test, TR-FRET (inhibition of binding of KRasG12D to GTP, SOS/GTP nucleotide exchange). It counts as biochemical. Particulars: read-out: IC50 values of the compounds for inhibiting KRAS enzymes, G12D. A digest of the protocol:
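KRasG12D preloaded with Bodipy-GDP plus Tb-streptavidin (3 nM Kras/0.5 nM Tb-SA/30 nM Bodipy-GDP) incubated 1 h at rt with compound (10-point 3-fold series). SOS/GTP mixture then added for 1 h at rt. TR-FRET signal read; IC50 calculated.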
(In general: TR-FRET usually uses a lanthanide donor and a delayed reading to cut background.)
Turning to `CC#Cc1cc(N)cc(C2Cc3nc(OC[C@@]45CCCN4CC(=C(F)F)C5)nc(N4CC5CCC(C4)N5)c3CS2(=O)=O)c1C(F)(F)F` (stereo partly drawn) [Compound 31], the concentration for half-maximal inhibition (IC50) is no more than 10 nM.
With `CC#Cc1cc(N)cc(C2Cc3nc(OC[C@@]45CCCN4C/C(=C\F)C5)nc(N4CC5CCC(C4)N5)c3CS2(=O)=O)c1C(F)(F)F` (stereo partly drawn) [Compound 32] the figure was no more than 10 nM.
With `Cc1cc(N)c(F)c([C@@H]2Cc3nc(OC[C@@]45CCCN4C[C@H](F)C5)nc(N4C[C@H]5CC[C@@H](C4)N5)c3CS2(=O)=O)c1C(F)(F)F` [Compound 33A, (7S)-7-(3-amino-2-fluoro-5-methyl-6-(trifluoromethyl)phenyl)-4-((1R,5S)-3,8-diazabicyclo[3.2.1]octane-3-yl)-2-(((2R,7AS)-2-fluorotetrahydro-1H-pyrrolazin-7a(5H)-yl)methoxy)-7,8-dihydro-5H-thiopyrano[4,3-d]pyrimidine 6,6-Dioxide] the figure was no more than 10 nM; with `Cc1cc(N)c(F)c([C@@H]2Cc3nc(OC[C@@]45CCCN4C[C@H](F)C5)nc(N4C[C@H]5CC[C@@H](C4)N5)c3CS2(=O)=O)c1C(F)(F)F` [Compound 34A, (7S)-7-(3-amino-2-fluoro-5-methyl-6-(trifluoromethyl)phenyl)-4-((1R,5S)-3,8-diazabicyclo[3.2.1]octane-3-yl)-2-(((2R,7AS)-2-fluorotetrahydro-1H-pyrrolazin-7a(5H)-yl)methoxy)-7,8-dihydro-5H-thiopyrano[4,3-d]pyrimidine 6,6-Dioxide], no more than 10 nM; with `Cc1cc(N)c(F)c([C@@H]2Cc3nc(OC[C@@]45CCCN4C[C@H](F)C5)nc(N4C[C@H]5CC[C@@H](C4)N5)c3CS2(=O)=O)c1C(F)(F)F` [Compound 35A, (7S)-7-(3-amino-2-fluoro-5-methyl-6-(trifluoromethyl)phenyl)-4-((1R,5S)-3,8-diazabicyclo[3.2.1]octane-3-yl)-2-(((2R,7AS)-2-fluorotetrahydro-1H-pyrrolazin-7a(5H)-yl)methoxy)-7,8-dihydro-5H-thiopyrano[4,3-d]pyrimidine 6,6-Dioxide], no more than 10 nM.
On to `Cc1cc(N)cc(C2Cc3nc(OC[C@@]45CCCN4C/C(=C\F)C5)nc(N4CC5CCC(C4)N5)c3CS2(=O)=O)c1C(F)(F)F` (stereo partly drawn) [Compound 35], for which the half-maximal inhibitory concentration (IC50) was no more than 10 nM.
The same measure for `Cc1cc(N)c(F)c([C@@H]2Cc3nc(OC[C@@]45CCCN4C[C@H](F)C5)nc(N4C[C@H]5CC[C@@H](C4)N5)c3CS2(=O)=O)c1C(F)(F)F` [Compound 36A, (7S)-7-(3-amino-2-fluoro-5-methyl-6-(trifluoromethyl)phenyl)-4-((1R,5S)-3,8-diazabicyclo[3.2.1]octane-3-yl)-2-(((2R,7AS)-2-fluorotetrahydro-1H-pyrrolazin-7a(5H)-yl)methoxy)-7,8-dihydro-5H-thiopyrano[4,3-d]pyrimidine 6,6-Dioxide]: no more than 10 nM; for `Cc1cc(N)cc([C@@H]2Cc3nc(OC[C@@]45CCCN4C[C@H](F)C5)nc(N4CC5CCC(C4)N5)c3CS2(=O)=O)c1C(F)(F)F` [Compound 37A]: no more than 10 nM.
The same measure for `Cc1cc(N)c(F)c([C@@H]2Cc3nc(OC[C@@]45CCCN4C[C@H](F)C5)nc(N4C[C@H]5CC[C@@H](C4)N5)c3CS2(=O)=O)c1C(F)(F)F` [Compound 38A, (7S)-7-(3-amino-2-fluoro-5-methyl-6-(trifluoromethyl)phenyl)-4-((1R,5S)-3,8-diazabicyclo[3.2.1]octane-3-yl)-2-(((2R,7AS)-2-fluorotetrahydro-1H-pyrrolazin-7a(5H)-yl)methoxy)-7,8-dihydro-5H-thiopyrano[4,3-d]pyrimidine 6,6-Dioxide]: no more than 10 nM; for `C=C1CN2CCC[C@@]2(COc2nc3c(c(N4CC5CCC(C4)N5)n2)CS(=O)(=O)C(c2cc(N)cc(C)c2C(F)(F)F)C3)C1` (stereo partly drawn) [Compound 38]: no more than 10 nM.
As for `Cc1cc(N)cc([C@@H]2Cc3nc(OC[C@@]45CCCN4C/C(=C\F)C5)nc(N4CC5CCC(C4)N5)c3CS2(=O)=O)c1C(F)(F)F` [Compound 39A], the 50% inhibitory concentration (IC50) was no more than 10 nM.
In the case of `Cc1cc(N)cc(C2Cc3nc(OC[C@@]45CCCN4CC(=C(F)F)C5)nc(N4CC5CCC(C4)N5)c3CS2(=O)=O)c1C(F)(F)F` (stereo partly drawn) [Compound 40], the IC50 is no more than 10 nM.

The values above are taken from patent EP4818178A1, “PREPARATION AND USE OF PYRIMIDOTHIOPYRANONE KRAS MUTANT PROTEIN INHIBITOR” (Ya Therapeutics Inc, priority 2024, dated 2025).
